Among the data in patent US20080176862A1, “New Compounds 617” (ASTRAZENECA AB, priority 2006, published 2008) are IC50 values, retold here.

This experiment has as its target T1, human β-Secretase (soluble part, AA1-AA460; sBACE-Fc) (Homo sapiens, UniProt P56817).
T1 construct: The soluble part of the human β-Secretase (AA1-AA460) was cloned into the ASP2-Fc10-1-IRES-GFP-neoK mammalian expression vector; made in house
The experiment in a line: TR-FRET assay. The format is biochemical. The conditions noted are these: substrate (Europium)CEVNLDAEFK(Qsy7) 100 nM, pH 4.5, 15 min at RT. The protocol: The enzyme used in the IGEN Cleavage-, Fluorescent-, TR-FRET- and BiaCore assays is described as follows:
The soluble part of the human β-Secretase (AA1-AA460) was cloned into the ASP2-Fc10-1-IRES-GFP-neoK mammalian expression vector. The gene was fused to the Fc domain of IgG1 (affinity tag) and stably cloned into HEK 293 cells. Purified sBACE-Fc is stored in Tris buffer, pH 9.2 and has a purity of 95%.
Enzyme was diluted to 6 μg/mL and the substrate (Europium)[…](Qsy7) to 200 nM in reaction buffer (NaAcetate, chaps, triton x-100, EDTA pH 4.5). Compounds were diluted to the desired concentration in dimethyl sulfoxide (final dimethyl sulfoxide concentration in assay is 5%). […] Enzyme (9 μL) and 1 μL of compound in dimethyl sulfoxide was added to the plate, mixed and pre-incubated for 10 min. Substrate (10 μL) was added and the reaction proceeded in the dark for 15 min at RT. The reaction was stopped with the addition of 7 μL NaAcetate, pH 9. The fluorescence of the product was measured on a Victor II plate reader with an excitation wavelength of 340 nm and an emission wavelength of 615 nm. […] The dimethyl sulfoxide control defined the 100% activity level and 0% activity was defined by exclusion of the enzyme (using reaction buffer instead).
On the technique in general: In TR-FRET formats the signal depends on donor and acceptor labels being close together.

The mark [1] stands for this setting: read-out: IC50 (nM) in TR-FRET assay.

For orientation: IC50 means the concentration at which inhibition is half-maximal.

Read-outs that look alike come from different tables or passages of the source.

T1 sequence (P56817 22-460): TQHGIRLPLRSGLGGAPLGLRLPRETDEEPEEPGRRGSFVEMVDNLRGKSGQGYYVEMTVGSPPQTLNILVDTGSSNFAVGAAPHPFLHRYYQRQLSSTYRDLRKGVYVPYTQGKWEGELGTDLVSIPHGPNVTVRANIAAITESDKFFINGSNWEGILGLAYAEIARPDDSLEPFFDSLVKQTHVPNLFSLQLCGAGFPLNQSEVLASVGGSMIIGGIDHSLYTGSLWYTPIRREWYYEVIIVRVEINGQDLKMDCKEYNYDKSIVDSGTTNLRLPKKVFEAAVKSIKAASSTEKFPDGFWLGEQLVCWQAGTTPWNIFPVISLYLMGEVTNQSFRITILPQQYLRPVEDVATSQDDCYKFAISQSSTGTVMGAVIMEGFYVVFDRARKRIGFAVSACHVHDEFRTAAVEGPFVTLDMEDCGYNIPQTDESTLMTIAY

On to `CN1C(=O)C(c2cccc(OS(C)(=O)=O)c2)(c2ccc(F)c(-c3cccnc3F)c2)N=C1N` (centres unmarked) [Example 88, 3-{2-Amino-4-[4-fluoro-3-(2-fluoropyridin-3-yl)phenyl]-1-methyl-5-oxo-4,5-dihydro-1H-imidazol-4-yl}phenylmethanesulfonate], for which, under setting [1], the IC50 is 234 nM.

On to `CN1C(=O)C(c2cccc(OS(C)(=O)=O)c2)(c2ccc(F)c(-c3cc(Cl)cc(Cl)c3)c2)N=C1N` (centres unmarked) [Example 89, 3-[2-Amino-4-(3′,5′-dichloro-6-fluorobiphenyl-3-yl)-1-methyl-5-oxo-4,5-dihydro-1H-imidazol-4-yl]phenyl methanesulfonate], for which the concentration for half-maximal inhibition (IC50) under setting [1] was 207 nM.

In the case of `CN1C(=O)C(c2cccc(OS(C)(=O)=O)c2)(c2ccc(F)c(-c3cccnc3)c2)N=C1N` (centres unmarked) [Example 90, 3-[2-Amino-4-(4-fluoro-3-pyridin-3-ylphenyl)-1-methyl-5-oxo-4,5-dihydro-1H-imidazol-4-yl]phenylmethanesulfonate], the half-inhibitory concentration (IC50) under setting [1] was determined as 385 nM.

On to `CN1C(=O)C(c2cccc(OS(C)(=O)=O)c2)(c2ccc(F)c(-c3cccc(Cl)c3)c2)N=C1N` (centres unmarked) [Example 91, 3-[2-Amino-4-(3′-chloro-6-fluorobiphenyl-3-yl)-1-methyl-5-oxo-4,5-dihydro-1H-imidazol-4-yl]phenyl methanesulfonate], for which, under setting [1], the IC50 was 228 nM.

As for `COc1cc(Cl)cc(-c2cc(C3(c4cccc(OS(C)(=O)=O)c4)N=C(N)N(C)C3=O)ccc2F)c1` (centres unmarked) [Example 92, 3-[2-Amino-4-(3′-chloro-6-fluoro-5′-methoxybiphenyl-3-yl)-1-methyl-5-oxo-4,5-dihydro-1H-imidazol-4-yl]phenyl methanesulfonate], the IC50 under setting [1] stood at 179 nM.

For `COc1cccc(-c2cc(C3(c4cccc(OS(C)(=O)=O)c4)N=C(N)N(C)C3=O)ccc2F)c1` (centres unmarked) [Example 93, 3-[2-Amino-4-(6-fluoro-3′-methoxybiphenyl-3-yl)-1-methyl-5-oxo-4,5-dihydro-1H-imidazol-4-yl]phenyl methanesulfonate], the IC50 under setting [1] came out at 146 nM.

For the compound `CN1C(=O)C(c2cccc(OS(C)(=O)=O)c2)(c2ccc(F)c(-c3cncnc3)c2)N=C1N` (centres unmarked) [Example 94, 3-[2-Amino-4-(4-fluoro-3-pyrimidin-5-ylphenyl)-1-methyl-5-oxo-4,5-dihydro-1H-imidazol-4-yl]phenyl methanesulfonate], the half-inhibitory concentration (IC50) under setting [1] is 472 nM.

On to `CCCS(=O)(=O)Oc1cccc(C2(c3ccc(F)c(-c4cc(Cl)cnc4F)c3)N=C(N)N(C)C2=O)c1` (centres unmarked) [Example 95, 3-{2-Amino-4-[3-(5-chloro-2-fluoropyridin-3-yl)-4-fluorophenyl]-1-methyl-5-oxo-4,5-dihydro-1H-imidazol-4-yl}phenyl propane-1-sulfonate], for which, under setting [1], the IC50 stood at 352 nM.

As to `CCCS(=O)(=O)Oc1cccc(C2(c3ccc(F)c(-c4cccnc4F)c3)N=C(N)N(C)C2=O)c1` (centres unmarked) [Example 96, 3-{2-Amino-4-[4-fluoro-3-(2-fluoropyridin-3-yl)phenyl]-1-methyl-5-oxo-4,5-dihydro-1H-imidazol-4-yl}phenyl propane-1-sulfonate], under setting [1], the IC50 was determined as 242 nM.

On to `CCCS(=O)(=O)Oc1cccc(C2(c3ccc(F)c(-c4cccnc4)c3)N=C(N)N(C)C2=O)c1` (centres unmarked) [Example 97, 3-[2-Amino-4-(4-fluoro-3-pyridin-3-ylphenyl)-1-methyl-5-oxo-4,5-dihydro-1H-imidazol-4-yl]phenylpropane-1-sulfonate], for which the IC50 under setting [1] was 236 nM.

On to `CCCS(=O)(=O)Oc1cccc(C2(c3ccc(F)c(-c4cccc(Cl)c4)c3)N=C(N)N(C)C2=O)c1` (centres unmarked) [Example 98, 3-[2-Amino-4-(3′-chloro-6-fluorobiphenyl-3-yl)-1-methyl-5-oxo-4,5-dihydro-1H-imidazol-4-yl]phenyl propane-1-sulfonate], for which, under setting [1], the IC50 stood at 239 nM.

As for `CCCS(=O)(=O)Oc1cccc(C2(c3ccc(F)c(-c4cc(Cl)cc(OC)c4)c3)N=C(N)N(C)C2=O)c1` (centres unmarked) [Example 99, 3-[2-Amino-4-(3′-chloro-6-fluoro-5′-methoxybiphenyl-3-yl)-1-methyl-5-oxo-4,5-dihydro-1H-imidazol-4-yl]phenyl propane-1-sulfonate], under setting [1], the IC50 is 330 nM.

`CCCS(=O)(=O)Oc1cccc(C2(c3ccc(F)c(-c4cc(Cl)cc(Cl)c4)c3)N=C(N)N(C)C2=O)c1` (centres unmarked) [Example 100, 3-[2-Amino-4-(3′,5′-dichloro-6-fluorobiphenyl-3-yl)-1-methyl-5-oxo-4,5-dihydro-1H-imidazol-4-yl]phenyl propane-1-sulfonate]: the IC50 under setting [1] was found to be 395 nM.

With `CCCS(=O)(=O)Oc1cccc(C2(c3ccc(F)c(-c4cccc(OC)c4)c3)N=C(N)N(C)C2=O)c1` (centres unmarked) [Example 101, 3-[2-Amino-4-(6-fluoro-3′-methoxybiphenyl-3-yl)-1-methyl-5-oxo-4,5-dihydro-1H-imidazol-4-yl]phenyl propane-1-sulfonate], under setting [1], the half-maximal inhibitory concentration (IC50) came to 180 nM.

Take `CCCS(=O)(=O)Oc1cccc(C2(c3ccc(F)c(-c4cncnc4)c3)N=C(N)N(C)C2=O)c1` (centres unmarked) [Example 102, 3-[2-Amino-4-(4-fluoro-3-pyrimidin-5-ylphenyl)-1-methyl-5-oxo-4,5-dihydro-1H-imidazol-4-yl]phenyl propane-1-sulfonate]: the concentration for half-maximal inhibition (IC50) under setting [1] worked out at 321 nM.

Turning to `CC(C)S(=O)(=O)Oc1cccc(C2(c3ccc(F)c(-c4cc(Cl)cnc4F)c3)N=C(N)N(C)C2=O)c1` (centres unmarked) [Example 103, 3-{2-Amino-4-[3-(5-chloro-2-fluoropyridin-3-yl)-4-fluorophenyl]-1-methyl-5-oxo-4,5-dihydro-1H-imidazol-4-yl}phenyl propane-2-sulfonate], under setting [1], the IC50 was found to be 227 nM.

For the compound `CC(C)S(=O)(=O)Oc1cccc(C2(c3ccc(F)c(-c4cccnc4F)c3)N=C(N)N(C)C2=O)c1` (centres unmarked) [Example 104, 3-{2-Amino-4-[4-fluoro-3-(2-fluoropyridin-3-yl)phenyl]-1-methyl-5-oxo-4,5-dihydro-1H-imidazol-4-yl}phenyl propane-2-sulfonate], under setting [1], the IC50 worked out at 186 nM.

Turning to `CC(C)S(=O)(=O)Oc1cccc(C2(c3ccc(F)c(-c4cccnc4)c3)N=C(N)N(C)C2=O)c1` (centres unmarked) [Example 105, 3-[2-Amino-4-(4-fluoro-3-pyridin-3-ylphenyl)-1-methyl-5-oxo-4,5-dihydro-1H-imidazol-4-yl]phenylpropane-2-sulfonate], the 50% inhibitory concentration (IC50) under setting [1] worked out at 343 nM.

On to `CC(C)S(=O)(=O)Oc1cccc(C2(c3ccc(F)c(-c4cccc(Cl)c4)c3)N=C(N)N(C)C2=O)c1` (centres unmarked) [Example 106, 3-[2-Amino-4-(3′-chloro-6-fluorobiphenyl-3-yl)-1-methyl-5-oxo-4,5-dihydro-1H-imidazol-4-yl]phenyl propane-2-sulfonate], for which the IC50 under setting [1] is 363 nM.

With `COc1cc(Cl)cc(-c2cc(C3(c4cccc(OS(=O)(=O)C(C)C)c4)N=C(N)N(C)C3=O)ccc2F)c1` (centres unmarked) [Example 107, 3-[2-Amino-4-(3′-chloro-6-fluoro-5′-methoxybiphenyl-3-yl)-1-methyl-5-oxo-4,5-dihydro-1H-imidazol-4-yl]phenyl propane-2-sulfonate], half-maximal inhibition (IC50 (nM) in TR-FRET assay) (IC50) was put at 311 nM.

Consider `COc1cccc(-c2cc(C3(c4cccc(OS(=O)(=O)C(C)C)c4)N=C(N)N(C)C3=O)ccc2F)c1` (centres unmarked) [Example 108, 3-[2-Amino-4-(6-fluoro-3′-methoxybiphenyl-3-yl)-1-methyl-5-oxo-4,5-dihydro-1H-imidazol-4-yl]phenyl propane-2-sulfonate], for which the half-inhibitory concentration (IC50) under setting [1] amounted to 186 nM.

With `CC(C)S(=O)(=O)Oc1cccc(C2(c3ccc(F)c(-c4cc(Cl)cc(Cl)c4)c3)N=C(N)N(C)C2=O)c1` (centres unmarked) [Example 109, 3-[2-Amino-4-(3′,5′-dichloro-6-fluorobiphenyl-3-yl)-1-methyl-5-oxo-4,5-dihydro-1H-imidazol-4-yl]phenyl propane-2-sulfonate], under setting [1], the IC50 worked out at 263 nM.

For the compound `CN1C(=O)C(c2cccc(OS(=O)(=O)N(C)C)c2)(c2ccc(F)c(-c3cccnc3F)c2)N=C1N` (centres unmarked) [Example 110, 3-{2-Amino-4-[4-fluoro-3-(2-fluoropyridin-3-yl)phenyl]-1-methyl-5-oxo-4,5-dihydro-1H-imidazol-4-yl}phenyldimethylsulfamate], under setting [1], the half-inhibitory concentration (IC50) was determined as 114 nM.

As for `CN1C(=O)C(c2cccc(OS(=O)(=O)N(C)C)c2)(c2ccc(F)c(-c3cccnc3)c2)N=C1N` (centres unmarked) [Example 111, 3-[2-Amino-4-(4-fluoro-3-pyridin-3-ylphenyl)-1-methyl-5-oxo-4,5-dihydro-1H-imidazol-4-yl]phenyldimethylsulfamate], the IC50 under setting [1] stood at 93 nM.

With `COc1cccc(-c2cc(C3(c4cccc(OS(=O)(=O)N(C)C)c4)N=C(N)N(C)C3=O)ccc2F)c1` (centres unmarked) [Example 112, 3-[2-Amino-4-(6-fluoro-3′-methoxybiphenyl-3-yl)-1-methyl-5-oxo-4,5-dihydro-1H-imidazol-4-yl]phenyl dimethylsulfamate], under setting [1], the IC50 was 150 nM.

Take `CN1C(=O)C(c2cccc(OS(=O)(=O)N(C)C)c2)(c2ccc(F)c(-c3cc(Cl)cc(Cl)c3)c2)N=C1N` (centres unmarked) [Example 113, 3-[2-Amino-4-(3′,5′-dichloro-6-fluorobiphenyl-3-yl)-1-methyl-5-oxo-4,5-dihydro-1H-imidazol-4-yl]phenyl dimethylsulfamate]: the concentration for half-maximal inhibition (IC50) under setting [1] stood at 121 nM.
